From ChEMBL document CHEMBL5661943, “ASAP - In vitro antiviral effect” (2024)

What was measured:
Zika virus [1] = test: (§1) Functional CPE-based assay to measure dose dependent changes in antiviral-drug inhibitory efficacy against Zika virus MR766 in Vero E6 miRFP670 cells (cotreated with P-gp inhibitor, CP100356). Cells are treated with antiviral candidates that are serially diluted. EC50 is reported via analysis of MTS assay as a readout of CPE. The assay has been performed by KU Leuven.; type: organism-based, Chlorocebus sabaeus, Vero C1008; details: Baseline response 0 %, Maximum response 100 %, P-gp concentration 500 nM, P-gp inhibitor CP100356
Zika virus [2] = test: EC50 is reported via analysis of immunofluorescence staining. The assay has been performed by Icahn School of Medicine at Mount Sinai.; type: functional, organism-based, Chlorocebus sabaeus, VeroE6/TMPRSS2; details: Baseline response 0 %, P-gp concentration 2 uM, P-gp inhibitor Elacidar
Zika virus [3] = test: as §1, with “cells.” for “cells (cotreated with P-gp inhibitor, CP100356).”; type: organism-based, Chlorocebus sabaeus, Vero C1008; details: for EC90: Baseline response 0 %, Maximum response 100 %
dengue virus type 2 [4] = test: Functional assay to measure dose dependent changes in antiviral-drug inhibitory efficacy against Dengue virus type 2 New Guinea C in Vero E6 miRFP670 cells (cotreated with P-gp inhibitor, CP100356). Cells are treated with antiviral candidates that are serially diluted, following infection, cells are fixed. EC50 is reported via analysis of fluorescence intensity using high-content imager. The …; type: organism-based, Chlorocebus sabaeus, Vero C1008; details: Baseline response 0 %, Maximum response 100 %, P-gp concentration 500 nM, P-gp inhibitor CP100356
dengue virus type 2 [5] = test: Functional immunofluorescence assay to measure dose dependent changes in antiviral-drug inhibitory efficacy against Dengue virus type 2 Thailand/16681/84 in Vero E6/TMPRSS2 cells (cotreated with P-gp inhibitor, Elacridar). Cells are treated with antiviral candidates that are serially diluted, following infection, cells are fixed. EC50 is reported via analysis of immunofluorescence staining. The assay has been performed by Icahn School of Medicine at Mount Sinai.; type: organism-based, Chlorocebus sabaeus, VeroE6/TMPRSS2; details: Baseline response 0 %, Maximum response 100 %, P-gp concentration 2 uM, P-gp inhibitor Elacidar

Work on `C#C[C@@]1(O)[C@H](O)[C@@H](CO)O[C@H]1n1ccc2c(N)ncnc21` yielded an EC90 (Zika virus [1]; EC90 CI (lower) 0.21 uM, EC90 CI (upper) 1.971 uM, Hill slope 4.843, Maximum measured 127.846 %, Minimum measured 44.624 %, R squared 0.529) of 644 nM, an EC90 (Zika virus [1]; EC90 CI (lower) 0.347 uM, EC90 CI (upper) 1.935 uM, Hill slope 4.005, Maximum measured 138.155 %, Minimum measured 32.327 %, R squared 0.565) of 819 nM and an EC90 (Zika virus [1]; EC90 CI (lower) 0.485 uM, EC90 CI (upper) 1.678 uM, Hill slope 2.708, Maximum measured 115.594 %, Minimum measured 50.299 %, R squared 0.731) of 902 nM. It also gave an EC90 (Zika virus [1]; EC90 CI (lower) 0.573 uM, EC90 CI (upper) 1.709 uM, Hill slope 2.773, Maximum measured 114.82 %, Minimum measured 43.135 %, R squared 0.56) of 990 nM, an EC90 (Zika virus [1]; EC90 CI (lower) 0.644 uM, EC90 CI (upper) 1.624 uM, Hill slope 2.782, Maximum measured 120.433 %, Minimum measured 40.681 %, R squared 0.677) of 1020 nM and an EC90 (Zika virus [1]; EC90 CI (lower) 0.736 uM, EC90 CI (upper) 2.012 uM, Hill slope 2.837, Maximum measured 119.107 %, Minimum measured 28.833 %, R squared 0.835) of 1220 nM. For the same compound, the EC90 (Zika virus [1]; EC90 CI (lower) 0.778 uM, EC90 CI (upper) 1.421 uM, Hill slope 2.877, Maximum measured 117.074 %, Minimum measured 36.973 %, R squared 0.767) was 1050 nM, the EC90 (Zika virus [1]; EC90 CI (lower) 1.744 uM, EC90 CI (upper) 2.505 uM, Hill slope 3.857, Maximum measured 108.608 %, Minimum measured 1.409 %, R squared 0.98) was 2090 nM and the EC90 (Zika virus [1]; Hill slope -0.24, Maximum measured 59.299 %, Minimum measured 14.65 %, R squared 0.03) was less than 391 nM. It also gave an EC90 (Zika virus [2]; EC90 CI (lower) 0.001 uM, EC90 CI (upper) 0.006 uM, Hill slope -0.989, Maximum measured 96.238 %, Maximum response 100 %, Minimum measured 0.519 %, R squared 0.897) of 224 nM, an EC90 (Zika virus [2]; EC90 CI (lower) 0.002 uM, EC90 CI (upper) 0.011 uM, Hill slope -0.683, Maximum measured 98.748 %, Maximum response 100 %, Minimum measured 0.794 %, R squared 0.927) of 2880 nM and an EC90 (Zika virus [2]; EC90 CI (lower) 0.002 uM, EC90 CI (upper) 0.016 uM, Hill slope -0.839, Maximum measured 81.893 %, Maximum response 100 %, Minimum measured 1.248 %, R squared 0.884) of 1180 nM. The EC90 (Zika virus [2]; EC90 CI (lower) 0.007 uM, EC90 CI (upper) 0.18 uM, Hill slope -1.662, Maximum measured 169.951 %, Maximum response 100 %, Minimum measured 5.93 %, R squared 0.731) was 510 nM, the EC90 (Zika virus [2]; EC90 CI (lower) 0.03 uM, EC90 CI (upper) 0.119 uM, Hill slope -3.091, Maximum measured 117.52 %, Maximum response 100 %, Minimum measured 1.1 %, R squared 0.948) was 247 nM and the EC90 (Zika virus [2]; EC90 CI (lower) 0.051 uM, EC90 CI (upper) 0.519 uM, Hill slope -4.939, Maximum measured 48.685 %, Maximum response 50 %, Minimum measured […], R squared 0.852) was 395 nM. It also gave an EC90 (Zika virus [2]; EC90 CI (lower) 0.102 uM, EC90 CI (upper) 0.325 uM, Hill slope -1.64, Maximum measured 123.086 %, Maximum response 100 %, Minimum measured 10.677 %, R squared 0.94) of 2650 nM, an EC90 (Zika virus [2]; Hill slope -0.492, Maximum measured 74.448 %, Maximum response 100 %, Minimum measured 1.207 %, R squared 0.744) greater than 10000 nM and an EC90 (Zika virus [3]; EC90 CI (lower) 0.609 uM, EC90 CI (upper) 2.047 uM, Hill slope 2.369, Maximum measured 114.788 %, Minimum measured 45.711 %, R squared 0.779) of 1120 nM. The EC90 (Zika virus [3]; EC90 CI (lower) 0.671 uM, EC90 CI (upper) 2.798 uM, Hill slope 1.934, Maximum measured 102.059 %, Minimum measured 46.421 %, R squared 0.63) was 1370 nM, the EC90 (Zika virus [3]; EC90 CI (lower) 0.837 uM, EC90 CI (upper) 2.594 uM, Hill slope 2.016, Maximum measured 108.843 %, Minimum measured 40.384 %, R squared 0.792) was 1470 nM and the EC90 (Zika virus [3]; EC90 CI (lower) 0.846 uM, EC90 CI (upper) 2.023 uM, Hill slope 2.239, Maximum measured 110.829 %, Minimum measured 40.755 %, R squared 0.884) was 1310 nM. For the same compound, the EC90 (Zika virus [3]; EC90 CI (lower) 0.889 uM, EC90 CI (upper) 2.697 uM, Hill slope 2.299, Maximum measured 106.469 %, Minimum measured 29.185 %, R squared 0.791) was 1550 nM, the EC90 (Zika virus [3]; EC90 CI (lower) 1.189 uM, EC90 CI (upper) 2.428 uM, Hill slope 2.067, Maximum measured 109.57 %, Minimum measured 34.796 %, R squared 0.858) was 1700 nM and the EC90 (Zika virus [3]; EC90 CI (lower) 1.447 uM, EC90 CI (upper) 5.92 uM, Hill slope 1.376, Maximum measured 98.736 %, Minimum measured 36.6 %, R squared 0.773) was 2930 nM. The EC90 (Zika virus [3]; EC90 CI (lower) 2.603 uM, EC90 CI (upper) 13.676 uM, Hill slope 1.372, Maximum measured 98.49 %, Minimum measured 18.919 %, R squared 0.79) was 5970 nM, the EC50 (Zika virus [3]; vero c1008) was 587 nM [middle of 8 runs] and the EC90 (dengue virus type 2 [4]; EC90 CI (lower) 0.063 uM, EC90 CI (upper) 0.198 uM, Hill slope -1.33, Maximum measured 59.85 %, Minimum measured 0.021 %, R squared 0.933) was 3050 nM. For the same compound, the EC90 (dengue virus type 2 [4]; EC90 CI (lower) 0.096 uM, EC90 CI (upper) 0.332 uM, Hill slope -1.394, Maximum measured 69.235 %, Minimum measured 0.073 %, R squared 0.818) was 4170 nM, the EC90 (dengue virus type 2 [4]; EC90 CI (lower) 0.135 uM, EC90 CI (upper) 0.222 uM, Hill slope -1.408, Maximum measured 67.754 %, Minimum measured 0.12 %, R squared 0.962) was 3930 nM and the EC90 (dengue virus type 2 [4]; EC90 CI (lower) 0.182 uM, EC90 CI (upper) 0.848 uM, Hill slope -1.407, Maximum measured 79.293 %, Minimum measured 0.097 %, R squared 0.879) was 8930 nM. For the same compound, the EC90 (dengue virus type 2 [4]; EC90 CI (lower) 0.301 uM, EC90 CI (upper) 0.481 uM, Hill slope -1.99, Maximum measured 82.418 %, Minimum measured 0.182 %, R squared 0.957) was 3460 nM, the EC90 (dengue virus type 2 [4]; EC90 CI (lower) 0.335 uM, EC90 CI (upper) 2.73 uM, Hill slope -2.159, Maximum measured 105.079 %, Minimum measured 6.932 %, R squared 0.477) was 7320 nM and the EC90 (dengue virus type 2 [4]; EC90 CI (lower) 0.344 uM, EC90 CI (upper) 0.572 uM, Hill slope -2.092, Maximum measured 82.86 %, Minimum measured 0.014 %, R squared 0.949) was 3620 nM. The EC90 (dengue virus type 2 [4]; EC90 CI (lower) 0.345 uM, EC90 CI (upper) 0.574 uM, Hill slope -1.668, Maximum measured 91.855 %, Minimum measured 0.191 %, R squared 0.984) was 6210 nM, the EC90 (dengue virus type 2 [4]; EC90 CI (lower) 0.345 uM, EC90 CI (upper) 1.174 uM, Hill slope -1.957, Maximum measured 94.468 %, Minimum measured 0.047 %, R squared 0.91) was 6020 nM and the EC90 (dengue virus type 2 [4]; EC90 CI (lower) 0.37 uM, EC90 CI (upper) 0.571 uM, Hill slope -1.792, Maximum measured 85.803 %, Minimum measured 0.04 %, R squared 0.97) was 5340 nM. The EC90 (dengue virus type 2 [4]; EC90 CI (lower) 0.614 uM, EC90 CI (upper) 2.492 uM, Hill slope -4.433, Maximum measured 159.506 %, Minimum measured 0.037 %, R squared 0.838) was 3330 nM, the EC90 (dengue virus type 2 [4]; EC90 CI (lower) 0.95 uM, EC90 CI (upper) 1.728 uM, Hill slope -2.215, Maximum measured 94.435 %, Minimum measured 0.459 %, R squared 0.976) was 9320 nM and the EC90 (dengue virus type 2 [4]; EC90 CI (lower) 1.094 uM, EC90 CI (upper) 1.586 uM, Hill slope -2.299, Maximum measured 103.071 %, Minimum measured 0.093 %, R squared 0.991) was 8910 nM. For the same compound, the EC90 (dengue virus type 2 [4]; EC90 CI (lower) 1.321 uM, EC90 CI (upper) 1.732 uM, Hill slope -3.141, Maximum measured 106.546 %, Minimum measured 0.058 %, R squared 0.995) was 6130 nM, the EC90 (dengue virus type 2 [4]; EC90 CI (lower) 1.689 uM, EC90 CI (upper) 2.244 uM, Hill slope -3.785, Maximum measured 107.412 %, Minimum measured 0.007 %, R squared 0.985) was 6210 nM and the EC90 (dengue virus type 2 [4]; EC90 CI (lower) […], EC90 CI (upper) 1.65 uM, Hill slope -1.956, Maximum measured 86.89 %, Minimum measured 0.152 %, R squared 0.926) was 9090 nM. It also gave an EC90 (dengue virus type 2 [5]; EC90 CI (lower) 0.185 uM, EC90 CI (upper) 0.987 uM, Hill slope -1.843, Maximum measured 114.823 %, Minimum measured 1.4 %, R squared 0.854) of 4.64 µM, an EC90 (dengue virus type 2 [5]; EC90 CI (lower) […] uM, EC90 CI (upper) 0.029 uM, Hill slope -0.795, Maximum measured 131.547 %, Minimum measured 0.898 %, R squared 0.782) of 1.45 µM and an EC90 (dengue virus type 2 [5]; EC90 CI (lower) […] uM, EC90 CI (upper) 0.107 uM, Hill slope -1.582, Maximum measured 108.655 %, Minimum measured 1.401 %, R squared 0.84) of 0.595 µM. It also gave an EC90 (dengue virus type 2 [5]; EC90 CI (lower) […] uM, EC90 CI (upper) 0.213 uM, Hill slope -0.879, Maximum measured 109.405 %, Minimum measured 0.502 %, R squared 0.793) of 8.04 µM.
